Active and inactive are the calls of the source. The calls are words filed in the database; no cut-off is given here.
What was measured:
[1] = Apparent volume of distribution during terminal phase in Sprague-Dawley rat at 10 mg/kg, po by LC-MS/MS analysis; type: ADME, organism-based; settings: in vivo
[2] = Antiproliferative activity in mouse BAF3 cells after 72 hrs by CCK8 assay; type: cell-based
KU812 cell line [3] = experiment: Induction of apoptosis in human KU812 cells assessed as cleaved caspase-3 level up to 0.3 uM after 24 hrs by immunoblotting analysis; type: functional, cell-based
[4] = molecular target: Ephrin type-A receptor 1 (Homo sapiens) (UniProt P21709); experiment: Inhibition of wild type C-terminal FLAG-tagged human TEL fused EPHA1 (unknown origin) transfected in mouse BAF3 cells assessed as growth inhibition after 72 hrs by CCK8 assay; type: cell-based
Sequence of Ephrin type-A receptor 1 (Homo sapiens) (P21709 whole entry, the tested form may be a part): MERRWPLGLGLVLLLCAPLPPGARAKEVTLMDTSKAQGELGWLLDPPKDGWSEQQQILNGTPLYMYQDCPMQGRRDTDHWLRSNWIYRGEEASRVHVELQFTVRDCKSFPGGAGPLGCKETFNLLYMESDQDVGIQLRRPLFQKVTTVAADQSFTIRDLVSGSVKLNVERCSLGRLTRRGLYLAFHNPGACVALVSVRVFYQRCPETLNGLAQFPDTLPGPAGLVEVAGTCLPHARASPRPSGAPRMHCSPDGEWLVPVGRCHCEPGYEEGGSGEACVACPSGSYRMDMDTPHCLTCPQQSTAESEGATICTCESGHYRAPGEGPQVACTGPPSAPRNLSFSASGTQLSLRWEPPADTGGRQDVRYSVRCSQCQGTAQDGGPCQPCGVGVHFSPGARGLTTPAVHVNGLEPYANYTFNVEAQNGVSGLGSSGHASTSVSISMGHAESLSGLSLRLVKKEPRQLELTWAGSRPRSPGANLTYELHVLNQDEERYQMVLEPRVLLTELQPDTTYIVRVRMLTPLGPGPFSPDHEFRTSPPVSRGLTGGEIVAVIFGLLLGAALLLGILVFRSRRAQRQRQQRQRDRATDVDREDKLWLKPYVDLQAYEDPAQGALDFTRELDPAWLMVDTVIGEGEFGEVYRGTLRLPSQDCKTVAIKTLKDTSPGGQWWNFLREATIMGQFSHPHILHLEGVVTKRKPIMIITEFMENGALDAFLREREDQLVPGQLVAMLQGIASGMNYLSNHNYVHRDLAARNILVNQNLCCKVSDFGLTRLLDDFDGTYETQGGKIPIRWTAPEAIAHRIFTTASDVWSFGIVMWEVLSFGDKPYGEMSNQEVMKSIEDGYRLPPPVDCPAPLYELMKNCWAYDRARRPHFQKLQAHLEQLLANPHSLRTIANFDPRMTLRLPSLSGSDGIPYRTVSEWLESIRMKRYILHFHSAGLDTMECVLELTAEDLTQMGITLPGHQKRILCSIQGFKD

[5] = molecular target: Platelet-derived growth factor receptor beta (Homo sapiens) (UniProt P09619); experiment: Inhibition of wild type C-terminal FLAG-tagged human TEL fused PDGFRbeta (unknown origin) transfected in mouse BAF3 cells assessed as growth inhibition after 72 hrs by CCK8 assay; type: cell-based
Sequence of Platelet-derived growth factor receptor beta (Homo sapiens) (P09619 whole entry, the tested form may be a part): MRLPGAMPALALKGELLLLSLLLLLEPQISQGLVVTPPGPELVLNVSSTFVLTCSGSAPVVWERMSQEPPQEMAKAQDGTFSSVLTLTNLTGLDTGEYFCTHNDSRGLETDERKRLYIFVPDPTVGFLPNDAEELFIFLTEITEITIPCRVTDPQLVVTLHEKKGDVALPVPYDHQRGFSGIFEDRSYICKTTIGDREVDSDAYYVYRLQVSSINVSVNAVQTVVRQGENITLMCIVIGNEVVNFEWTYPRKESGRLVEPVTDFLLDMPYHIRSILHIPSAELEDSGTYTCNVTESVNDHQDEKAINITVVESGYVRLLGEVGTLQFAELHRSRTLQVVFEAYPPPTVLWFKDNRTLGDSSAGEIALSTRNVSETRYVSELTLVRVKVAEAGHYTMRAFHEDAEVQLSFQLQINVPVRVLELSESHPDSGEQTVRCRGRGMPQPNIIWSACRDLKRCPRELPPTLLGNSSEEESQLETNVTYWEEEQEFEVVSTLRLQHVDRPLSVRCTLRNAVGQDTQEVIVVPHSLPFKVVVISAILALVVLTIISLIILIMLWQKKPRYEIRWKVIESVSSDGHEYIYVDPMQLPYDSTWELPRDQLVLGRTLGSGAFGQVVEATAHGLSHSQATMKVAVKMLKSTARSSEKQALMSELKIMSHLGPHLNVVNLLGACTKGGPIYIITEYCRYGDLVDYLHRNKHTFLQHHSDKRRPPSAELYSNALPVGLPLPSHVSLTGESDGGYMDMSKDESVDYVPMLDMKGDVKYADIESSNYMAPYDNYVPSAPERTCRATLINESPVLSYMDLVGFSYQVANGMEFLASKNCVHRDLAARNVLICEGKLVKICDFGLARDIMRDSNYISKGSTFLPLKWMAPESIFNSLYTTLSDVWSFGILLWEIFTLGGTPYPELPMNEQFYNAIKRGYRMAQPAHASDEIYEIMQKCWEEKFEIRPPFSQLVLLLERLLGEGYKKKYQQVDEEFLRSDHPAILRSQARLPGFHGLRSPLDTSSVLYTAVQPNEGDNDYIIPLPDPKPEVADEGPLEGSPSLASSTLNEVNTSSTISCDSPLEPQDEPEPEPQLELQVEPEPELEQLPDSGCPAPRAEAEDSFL

[6] = Toxicity in nu/nu mouse allografted with mouse BAF3 cells expressing BCR/ABL T315I mutant assessed as effect on body weight at 25 to 50 mg/kg, po administered daily via gavage for 14 days; type: organism-based; settings: in vivo, 336 h
Bcr/Abl fusion protein [7] = molecular target: T1, Bcr/Abl fusion protein (Homo sapiens, UniProt P00519, T315I); experiment: Inhibition of BCR/ABL T315I mutant (unknown origin) expressed in mouse BAF3 cells assessed as inhibition of STAT5 phosphorylation after 1 hr by immunoblotting analysis; type: cell-based
K562 = experiment: Antiproliferative activity in human K562 cells after 72 hrs by CCK8 assay; type: functional; settings: K562, 72 h
KU812 cell line [8] = experiment: Cell cycle arrest in human KU812 cells assessed as accumulation at G0/G1 phase up to 0.3 uM after 24 hrs by propidium iodide/RNase staining based flow cytometric analysis; type: functional
HL-60 = experiment: Antiproliferative activity in human HL60 cells after 72 hrs by CCK8 assay; type: functional; settings: HL-60, 72 h
[9] = molecular target: Platelet-derived growth factor receptor alpha (Homo sapiens) (UniProt P16234); experiment: Inhibition of wild type C-terminal FLAG-tagged human TEL fused PDGFRalpha (unknown origin) transfected in mouse BAF3 cells assessed as growth inhibition after 72 hrs by CCK8 assay; type: cell-based
Bcr/Abl fusion protein [10] = molecular target: T1, Bcr/Abl fusion protein; experiment: Inhibition of BCR/ABL T315I mutant (unknown origin) expressed in mouse BAF3 cells assessed as inhibition of ErK phosphorylation after 1 hr by immunoblotting analysis; type: cell-based
[11] = MRT (0 to t) in mouse at 10 mg/kg, po by LC-MS/MS analysis; type: ADME, organism-based; settings: in vivo
[12] = Apparent clearance during terminal phase in mouse at 10 mg/kg, po by LC-MS/MS analysis; type: ADME, organism-based; settings: in vivo, read-out: CLz/F (converted)
[13] = MRT (0 to t) in Sprague-Dawley rat at 1 mg/kg, iv by LC-MS/MS analysis; type: ADME, organism-based; settings: in vivo
[14] = Apparent volume of distribution during terminal phase in mouse at 10 mg/kg, po by LC-MS/MS analysis; type: ADME, organism-based; settings: in vivo
[15] = AUC (0 to t) in Sprague-Dawley rat at 1 mg/kg, iv by LC-MS/MS analysis; type: ADME, organism-based; settings: in vivo
[16] = molecular target: Proto-oncogene tyrosine-protein kinase receptor Ret (Homo sapiens) (UniProt P07949); experiment: Inhibition of wild type C-terminal FLAG-tagged human TEL fused RET (unknown origin) transfected in mouse BAF3 cells assessed as growth inhibition after 72 hrs by CCK8 assay; type: cell-based
Sequence of Proto-oncogene tyrosine-protein kinase receptor Ret (Homo sapiens) (P07949 whole entry, the tested form may be a part): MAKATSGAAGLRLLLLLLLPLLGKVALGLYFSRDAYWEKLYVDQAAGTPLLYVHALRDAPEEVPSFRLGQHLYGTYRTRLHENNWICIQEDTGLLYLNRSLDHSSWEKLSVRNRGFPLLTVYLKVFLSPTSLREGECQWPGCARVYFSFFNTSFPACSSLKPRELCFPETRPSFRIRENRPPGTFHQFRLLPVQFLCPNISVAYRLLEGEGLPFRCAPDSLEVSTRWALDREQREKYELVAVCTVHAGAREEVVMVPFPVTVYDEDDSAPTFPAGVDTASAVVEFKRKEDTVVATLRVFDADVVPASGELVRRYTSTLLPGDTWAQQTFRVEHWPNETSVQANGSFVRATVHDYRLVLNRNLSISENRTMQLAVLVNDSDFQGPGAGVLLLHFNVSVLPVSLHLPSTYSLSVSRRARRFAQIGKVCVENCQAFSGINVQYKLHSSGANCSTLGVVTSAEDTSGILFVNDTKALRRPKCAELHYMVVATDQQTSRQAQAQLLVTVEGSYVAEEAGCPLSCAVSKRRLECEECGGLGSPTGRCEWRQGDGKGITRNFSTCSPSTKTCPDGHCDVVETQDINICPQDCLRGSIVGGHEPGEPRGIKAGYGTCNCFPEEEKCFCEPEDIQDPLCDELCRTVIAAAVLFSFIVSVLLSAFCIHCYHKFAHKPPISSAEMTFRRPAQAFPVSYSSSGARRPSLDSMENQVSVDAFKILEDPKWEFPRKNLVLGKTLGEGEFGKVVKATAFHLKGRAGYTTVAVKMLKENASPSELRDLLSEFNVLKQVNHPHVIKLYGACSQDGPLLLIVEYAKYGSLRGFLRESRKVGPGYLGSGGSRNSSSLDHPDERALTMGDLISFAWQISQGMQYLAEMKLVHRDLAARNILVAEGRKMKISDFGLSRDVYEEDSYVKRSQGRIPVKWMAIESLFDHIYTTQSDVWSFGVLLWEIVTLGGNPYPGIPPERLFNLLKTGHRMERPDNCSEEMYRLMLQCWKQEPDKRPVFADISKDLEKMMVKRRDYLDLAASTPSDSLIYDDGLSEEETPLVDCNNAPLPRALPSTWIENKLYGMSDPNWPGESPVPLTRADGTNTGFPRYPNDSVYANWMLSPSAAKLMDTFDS

[17] = Cmax in mouse at 10 mg/kg, po by LC-MS/MS analysis; type: ADME, organism-based; design: dose 10 mg/kg, route oral; settings: in vivo
[18] = system: Bcr/Abl fusion protein (Homo sapiens), P00519+P11274 [M351T]; settings: BaF3
[19] = molecular target: T2, Bcr/Abl fusion protein (Homo sapiens) (UniProt P00519+P11274); experiment: (§1) Inhibition of BCR/ABL in human KU812 cells assessed as inhibition of BCR/ABL autophosphorylation at Y245 site after 1 hr by immunoblotting analysis; type: cell-based
Bcr/Abl fusion protein [20] = molecular target: Bcr/Abl fusion protein (Homo sapiens, UniProt P00519); experiment: as §1; type: cell-based
[21] = Half life in mouse at 1 mg/kg, iv by LC-MS/MS analysis; type: ADME, organism-based; settings: in vivo
[22] = Apparent volume of distribution during terminal phase in mouse at 1 mg/kg, iv by LC-MS/MS analysis; type: ADME, organism-based; settings: in vivo, read-out: Vz
[23] = molecular target: Vascular endothelial growth factor receptor 1 (Homo sapiens) (UniProt P17948); experiment: Inhibition of wild type C-terminal FLAG-tagged human TEL fused FLT1 (unknown origin) transfected in mouse BAF3 cells assessed as growth inhibition after 72 hrs by CCK8 assay; type: cell-based
[24] = system: Bcr/Abl fusion protein (Homo sapiens), P00519+P11274 [Y253F]; settings: BaF3
Bcr/Abl fusion protein [25] = molecular target: T1, Bcr/Abl fusion protein; experiment: Inhibition of BCR/ABL T315I mutant (unknown origin) expressed in mouse BAF3 cells assessed as inhibition of BCR/ABL T315I mutant autophosphorylation at Y245 site after 1 hr by immunoblotting analysis; type: cell-based
[26] = Oral bioavailability in Sprague-Dawley rat at 10 mg/kg by LC-MS/MS analysis; type: ADME, organism-based; settings: in vivo
[27] = molecular target: Vascular endothelial growth factor receptor 2 (Homo sapiens) (UniProt P35968); experiment: Inhibition of wild type C-terminal FLAG-tagged human TEL fused VEGFR2 (unknown origin) transfected in mouse BAF3 cells assessed as growth inhibition after 72 hrs by CCK8 assay; type: cell-based
Sequence of Vascular endothelial growth factor receptor 2 (Homo sapiens) (P35968 whole entry, the tested form may be a part): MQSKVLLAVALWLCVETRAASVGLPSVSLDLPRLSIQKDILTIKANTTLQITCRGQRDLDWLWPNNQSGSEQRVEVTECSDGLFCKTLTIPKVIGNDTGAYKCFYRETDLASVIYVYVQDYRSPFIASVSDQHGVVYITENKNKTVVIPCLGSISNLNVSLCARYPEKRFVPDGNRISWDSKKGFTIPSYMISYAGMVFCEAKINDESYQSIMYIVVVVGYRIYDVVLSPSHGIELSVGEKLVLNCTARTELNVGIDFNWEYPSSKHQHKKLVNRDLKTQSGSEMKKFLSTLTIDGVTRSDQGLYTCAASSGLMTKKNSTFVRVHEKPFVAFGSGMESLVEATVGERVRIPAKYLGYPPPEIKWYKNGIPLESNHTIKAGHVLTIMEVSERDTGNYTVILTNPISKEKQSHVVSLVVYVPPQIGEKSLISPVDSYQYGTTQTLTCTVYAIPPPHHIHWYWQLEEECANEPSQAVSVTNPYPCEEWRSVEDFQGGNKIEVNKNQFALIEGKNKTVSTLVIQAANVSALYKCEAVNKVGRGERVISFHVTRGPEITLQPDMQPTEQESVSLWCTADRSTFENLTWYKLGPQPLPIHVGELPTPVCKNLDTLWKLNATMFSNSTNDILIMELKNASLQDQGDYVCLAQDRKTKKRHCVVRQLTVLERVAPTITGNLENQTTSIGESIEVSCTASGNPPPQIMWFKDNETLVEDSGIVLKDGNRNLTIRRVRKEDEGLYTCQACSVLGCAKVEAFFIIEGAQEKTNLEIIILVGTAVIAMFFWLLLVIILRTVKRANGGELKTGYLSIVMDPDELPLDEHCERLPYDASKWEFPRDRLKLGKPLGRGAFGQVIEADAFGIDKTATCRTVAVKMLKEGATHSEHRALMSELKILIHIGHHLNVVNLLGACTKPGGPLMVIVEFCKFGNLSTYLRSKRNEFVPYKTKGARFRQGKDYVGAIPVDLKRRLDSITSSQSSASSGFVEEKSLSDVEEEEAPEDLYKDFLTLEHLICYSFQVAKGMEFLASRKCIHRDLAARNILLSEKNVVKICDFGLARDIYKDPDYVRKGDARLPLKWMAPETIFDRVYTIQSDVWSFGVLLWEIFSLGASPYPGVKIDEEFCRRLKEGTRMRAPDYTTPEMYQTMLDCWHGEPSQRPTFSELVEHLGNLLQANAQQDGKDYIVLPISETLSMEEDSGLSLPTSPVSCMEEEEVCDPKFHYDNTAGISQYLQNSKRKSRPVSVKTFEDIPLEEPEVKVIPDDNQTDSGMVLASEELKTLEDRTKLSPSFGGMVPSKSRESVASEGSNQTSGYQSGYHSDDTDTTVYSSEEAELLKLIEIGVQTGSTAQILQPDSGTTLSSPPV

BaF3 [28] = experiment: Antitumor activity against mouse BAF3 cells expressing BCR/ABL T315I mutant allografted in nu/nu mouse assessed as tumor growth inhibition at 25 mg/kg, po administered via gavage for 14 days relative to control; type: functional; settings: 336 h, read-out: TGI
[29] = Apparent clearance during terminal phase in mouse at 1 mg/kg, iv by LC-MS/MS analysis; type: ADME, organism-based; settings: in vivo
Bcr/Abl fusion protein [30] = molecular target: T1, Bcr/Abl fusion protein; experiment: Inhibition of BCR/ABL T315I mutant (unknown origin) expressed in mouse BAF3 cells assessed as inhibition of CrkL phosphorylation after 1 hr by immunoblotting analysis; type: cell-based
[31] = AUC (0 to infinity) in Sprague-Dawley rat at 10 mg/kg, po by LC-MS/MS analysis; type: ADME, organism-based; design: dose 10 mg/kg, time infinity, route oral; settings: in vivo
BaF3 [32] = experiment: Induction of apoptosis in mouse BAF3 cells expressing BCR/ABL T315I mutant assessed as cleaved PARP level up to 0.3 uM after 24 hrs by immunoblotting analysis; type: functional, cell-based
[33] = molecular target: T2, Bcr/Abl fusion protein (Homo sapiens); experiment: Inhibition of BCR/ABL in human KU812 cells assessed as inhibition of STAT5 phosphorylation up to 0.3 uM after 1 hr by immunoblotting analysis; type: cell-based
[34] = molecular target: T2, Bcr/Abl fusion protein (Homo sapiens); experiment: Inhibition of BCR/ABL in human MEG01 cells assessed as inhibition of STAT5 phosphorylation up to 0.3 uM after 1 hr by immunoblotting analysis; type: cell-based
BaF3 [35] = experiment: Cell cycle arrest in mouse BAF3 cells expressing BCR/ABL T315I mutant assessed as accumulation at G0/G1 phase up to 0.3 uM after 24 hrs by propidium iodide/RNase staining based flow cytometric analysis; type: functional

CN1CCN(Cc2ccc(NC(=O)CCSc3ccc4c(/C=C/c5ccccn5)n[nH]c4c3)cc2C(F)(F)F)CC1
Vz [1]: 139.1 L/kg | GI50 at 72 h [2]: 2480 nM | Activity (KU812 cell line [3]): Active | GI50 [4]: 920 nM | GI50 [5]: 8 nM | Activity [6]: Non-Toxic | EC50 (Bcr/Abl fusion protein [7]): < 10 nM | GI50 (K562): 1 nM | Activity (KU812 cell line [8]): Active | GI50 (HL-60): 870 nM | GI50 [9]: 2 nM | EC50 (Bcr/Abl fusion protein [10]): < 10 nM | MRT last [11]: 3.3 h | CL/F [12]: 723 mL/min/kg | MRT last [13]: 1.2 h | Vz [14]: 124.9 L/kg | AUC(0-t) [15]: 192 ng·h/mL | GI50 [16]: 200 nM | Cmax [17]: 87.7 ng/mL | GI50 [18]: 17 nM | inhibition [19]: Dose-dependent effect | EC50 (Bcr/Abl fusion protein [20]): < 30 nM | half-life [21]: 300 min | Vd [22]: 45.3 L/kg | GI50 [23]: 2 nM | GI50 [24]: 180 nM | EC50 (Bcr/Abl fusion protein [25]): < 10 nM | bioavailability [26]: 10.9% | GI50 [27]: 2 nM | inhibition in vivo at 25 mg/kg (BaF3 [28]): 29% | CLz/F [29]: 6.2 L/h/kg | EC50 (Bcr/Abl fusion protein [30]): < 10 nM | AUC(0-inf) [31]: 266 ng·h/mL | Activity (BaF3 [32]): Active | inhibition [33]: Active | inhibition [34]: Active | Activity (BaF3 [35]): Active

Reference: ChEMBL document CHEMBL4382204 (Eur J Med Chem, 2018)
